# Activity calls are given as the source filed them. No cut-off for these calls is given here.
# Columns and labels:
# MIA PaCa-2 = assay: Antiproliferative activity against human MIA PaCa-2 cells assessed as inhibition of cell proliferation incubated for 72 hrs by CCK-8 assay; type: functional, cell-based; conditions: MIA PaCa-2, 72 h
# Kasumi 1 [1] = assay: Disruption of citrate metabolic pathway in human Kasumi 1 cells by KEGG enrichment analysis; type: functional, cell-based
# WEHI-3 [2] = assay: PANoptosis in mouse WEHI-3 cells assessed as cell death at 1.2 uM incubated for 72 hrs by optical microscopic analysis; type: functional, cell-based
# Kasumi 1 [3] = assay: Induction of cell cycle arrest in human Kasumi 1 cells assessed as increase in P21 level at 0.15 to 1.2 uM incubated for 24 hrs by Western blotting analysis; type: functional, cell-based; conditions: dose 0.15-1.2 µM
# [4] = Induction of cell cycle arrest in mouse WEHI-3 cells assessed as increase in accumulation of cells at G2 phase at 0.25 uM incubated for 24 hrs by propidium iodide staining based flow cytometric analysis (reference value: 1.85%); type: functional
# HT-29 = assay: Antiproliferative activity against human HT-29 cells assessed as inhibition of cell proliferation incubated for 72 hrs by CCK-8 assay; type: functional, cell-based; conditions: HT-29, 72 h
# Kasumi 1 [5] = assay: Disruption of pyruvate metabolic pathway in human Kasumi 1 cells by KEGG enrichment analysis; type: functional, cell-based
# WEHI-3 [6] = assay: Induction of apoptosis in mouse WEHI-3 cells assessed as increase in cleaved PARP-1 level incubated for 72 hrs by Western blotting analysis; type: functional, cell-based; conditions: dose 0.625-5 µM
# WEHI-3 [7] = assay: Antitumor activity against mouse WEHI-3 cells implanted in Balb/c mouse assessed as reduction in leukocyte number at 100 to 200 mg/kg, po administered (4aR,6aS,7S,9aS,9bS)-2-(((S)-2-(hydroxymethyl)pyrrolidin-1-yl)methyl)-6a-methyl7 ((triisopropylsilyl)oxy)decahydrocyclopenta[f]chromen-3(2H)-one as prodrug once daily and measured after 15 days by H and E staining based analysis; type: functional, organism-based; conditions: dose 100-200 mg/kg, time 15.0 day
# Kasumi 1 [8] = assay: Induction of […] in human Kasumi 1 cells assessed as increase in p-RIPK3 level at 0.625 to 5 uM incubated for 72 hrs by Western blotting analysis; type: functional, cell-based; conditions: dose 0.625-5 µM
# Kasumi 1 [9] = assay: Disruption of carbon metabolic pathway in human Kasumi 1 cells by KEGG enrichment analysis; type: functional, cell-based
# [10] = Induction of cell cycle arrest in mouse WEHI-3 cells assessed as increase in accumulation of cells at G1 phase at 0.25 uM incubated for 24 hrs by propidium iodide staining based flow cytometric analysis (reference value: 46.93%); type: functional
# [11] = Antiproliferative activity against human SKNO-1 cells assessed as inhibition of cell proliferation incubated for 72 hrs by CCK-8 assay; type: functional, cell-based; conditions: SKNO-1, 72 h
# HCT-116 [12] = assay: Antiproliferative activity against human HCT-116 cells assessed as inhibition of cell proliferation incubated for 72 hrs by CCK-8 assay; type: functional, cell-based; conditions: HCT-116, 72 h
# NCI-H460 = assay: Antiproliferative activity against human NCI-H460 cells assessed as inhibition of cell proliferation incubated for 72 hrs by CCK-8 assay; type: functional, cell-based; conditions: NCI-H460, 72 h
# Kasumi 1 [13] = assay: Induction of cell cycle arrest in human Kasumi 1 cells assessed as increase in accumulation of cells at G1 phase at 0.5 uM incubated for 24 hrs by propidium iodide staining based flow cytometric analysis (reference value: 50.41%); type: functional
# A549 = assay: Antiproliferative activity against human A549 cells assessed as inhibition of cell proliferation incubated for 72 hrs by CCK-8 assay; type: functional, cell-based; conditions: A549, 72 h
# Kasumi 1 [14] = assay: Induction of apoptosis in human Kasumi 1 cells assessed as increase in caspase-3 level incubated for 72 hrs by Western blotting analysis; type: functional, cell-based; conditions: dose 0.625-5 µM
# Kasumi 1 [15] = assay: Induction of cell cycle arrest in human Kasumi 1 cells assessed as increase in accumulation of cells at G2 phase at 1 uM incubated for 24 hrs by propidium iodide staining based flow cytometric analysis (reference value: 9.82%); type: functional
# [16] = Induction of cell cycle arrest in mouse WEHI-3 cells assessed as increase in accumulation of cells at S phase at 0.5 uM incubated for 24 hrs by propidium iodide staining based flow cytometric analysis (reference value: 51.22%); type: functional
# Kasumi 1 [17] = assay: Induction of […] in human Kasumi 1 cells assessed as increase in p-MLKL level at 0.625 to 5 uM incubated for 72 hrs by Western blotting analysis; type: functional, cell-based; conditions: dose 0.625-5 µM
# BXPC-3 = assay: Antiproliferative activity against human BXPC-3 cells assessed as inhibition of cell proliferation incubated for 72 hrs by CCK-8 assay; type: functional, cell-based; conditions: BXPC-3, 72 h
# HCT-15 = assay: Antiproliferative activity against human HCT-15 cells assessed as inhibition of cell proliferation incubated for 72 hrs by CCK-8 assay; type: functional, cell-based; conditions: HCT-15, 72 h
# [18] = Induction of cell cycle arrest in mouse WEHI-3 cells assessed as increase in accumulation of cells at S phase at 1 uM incubated for 24 hrs by propidium iodide staining based flow cytometric analysis (reference value: 51.22%); type: functional
# WEHI-3 [19] = assay: Induction of pyroptosis in mouse WEHI-3 cells assessed as increase in p-RIPK3 level at 0.625 to 5 uM incubated for 72 hrs by Western blotting analysis; type: functional, cell-based; conditions: dose 0.625-5 µM
# MV4-11 = assay: Antiproliferative activity against human MV4-11 cells assessed as inhibition cell proliferation incubated for 72 hrs by MTT assay; type: functional, cell-based; conditions: MV4-11, 72 h
# MOLM-13 = assay: Antiproliferative activity against human MOLM-13 cells assessed as inhibition of cell proliferation incubated for 72 hrs by CCK-8 assay; type: functional, cell-based; conditions: MOLM-13, 72 h
# Calu-1 = assay: Antiproliferative activity against human Calu-1 cells assessed as inhibition of cell proliferation incubated for 72 hrs by CCK-8 assay; type: functional, cell-based; conditions: Calu-1, 72 h
# WEHI-3 [20] = assay: Induction of cell cycle arrest in mouse WEHI-3 cells assessed as increase in P53 level at 0.15 to 1.2 uM incubated for 24 hrs by Western blotting analysis; type: functional, cell-based; conditions: dose 0.15-1.2 µM
# Kasumi 1 [21] = assay: Induction of cell cycle arrest in human Kasumi 1 cells assessed as increase in accumulation of cells at S phase at 0.25 uM incubated for 24 hrs by propidium iodide staining based flow cytometric analysis (reference value: 39.77%); type: functional
# [22] = Induction of cell cycle arrest in mouse WEHI-3 cells assessed as increase in accumulation of cells at G2 phase at 0.5 uM incubated for 24 hrs by propidium iodide staining based flow cytometric analysis (reference value: 1.85%); type: functional
# WEHI-3 [23] = assay: Induction of cell differentiation in mouse WEHI-3 cells assessed as increase in CD11B expression by Western blotting analysis; type: functional, cell-based; conditions: dose 0.125-1 µM
# WEHI-3 [24] = assay: Antitumor activity against mouse WEHI-3 cells implanted in Balb/c mouse assessed as reduction in liver metastasis at 1 mg/kg, po administered daily for 15 days by H and E staining based analysis; type: functional, organism-based; conditions: time 15.0 day
# WEHI-3 [25] = assay: Inhibition of colony formation in mouse WEHI-3 cells incubated for 15 days by crystal violet staining based analysis; type: functional, cell-based; conditions: dose 0.5-1 µM, time 15.0 day
# NCI-H23 = assay: Antiproliferative activity against human NCI-H23 cells assessed as inhibition of cell proliferation incubated for 72 hrs by CCK-8 assay; type: functional, cell-based; conditions: NCI-H23, 72 h
# HCT-116 [26] = assay: Anti-cancer activity against human HCT-116 cells assessed as reduction in number of spheroids incubated for 24 hrs; type: functional, cell-based
# Kasumi 1 [27] = assay: Induction of pyroptosis in human Kasumi 1 cells assessed as effect on cleaved N-GSDMB at 0.6 to 2.5 uM incubated for 24 hrs by Western blotting analysis; type: functional, cell-based; conditions: dose 0.6-2.5 µM
smiles,measurement,setting,value
C=C1C[C@@H]2[C@@H](CC[C@]3(C)[C@@H](O[Si](C(C)C)(C(C)C)C(C)C)CC[C@@H]23)OC1=O,IC50,MIA PaCa-2,1710 nM
same,Activity,Kasumi 1 [1],Active
same,Activity,WEHI-3 [2],Active
same,Activity,Kasumi 1 [3],Active
same,Activity,[4],1.76%
same,IC50,HT-29,1740 nM
same,Activity,Kasumi 1 [5],Active
same,Activity,WEHI-3 [6],Dose-dependent-effect
same,Activity,WEHI-3 [7],Active
same,Activity,Kasumi 1 [8],Active
same,Activity,Kasumi 1 [9],Active
same,Activity,[10],51.78%
same,IC50,[11],1240 nM
same,IC50,HCT-116 [12],1930 nM
same,IC50,NCI-H460,2820 nM
same,Activity,Kasumi 1 [13],53.53%
same,IC50,A549,5240 nM
same,Activity,Kasumi 1 [14],Dose-dependent-effect
same,Activity,Kasumi 1 [15],18.95%
same,Activity,[16],43.52%
same,Activity,Kasumi 1 [17],Active
same,IC50,BXPC-3,> 10000 nM
same,IC50,HCT-15,8900 nM
same,Activity,[18],32.07%
same,Activity,WEHI-3 [19],Active
same,IC50,MV4-11,1750 nM
same,IC50,MOLM-13,1530 nM
same,IC50,Calu-1,3600 nM
same,Activity,WEHI-3 [20],Active
same,Activity,Kasumi 1 [21],36.36%
same,Activity,[22],3.33%
same,Activity,WEHI-3 [23],Dose-dependent-effect
same,Activity,WEHI-3 [24],Active
same,inhibition,WEHI-3 [25],Dose-dependent-effect
same,IC50,NCI-H23,4000 nM
same,Activity,HCT-116 [26],Active
same,Activity,Kasumi 1 [27],Active
